Assay [1] has as its system Staphylococcus epidermidis ATCC 35984. In words: Prevention of in vitro biofilm formation on coated silicone tubing. The format is cell-based. The settings on record: silicone tubing incubated overnight in 20 mg/ml solution; inoculum 10^5 or 10^7 CFU/ml. How it is done: Silicone tubing (0.040″ inner-diameter by 0.085″ outer-diameter by 0.023″ wall thickness; VWR International) was cut into 1 cm lengths then cut longitudinally in half. Cut tubing pieces were sterilized overnight in 99% ethanol. Tubing pieces were rinsed in 2 ml of sterile water then incubated overnight at room temperature in 20 mg/ml of either oritavancin or chloroeremomycin solution in water. Control tubing pieces were incubated in water as described. The following day, tubing pieces were rinsed in 2 ml of water then incubated with Staphylococcus epidermis ATCC 35984 at an inoculum density of either 10^5 CFU/ml or 10^7 CFU/ml in tryptic soy broth at 37° C. with rotation at 150 rpm in a rotational incubator. Tubing pieces were rinsed in 2 ml of sterile physiologic saline and bacteria in the biofilm formed on the silicone tubing were recovered by sonicating the tubing pieces in 1 ml of sterile physiologic saline in a sonicating water bath (VWR Aquasonic model 550D). Recovered bacteria were enumerated by serial dilution plating.

The test system of the next assay is MSSA ATCC 29213. The following applies: absence of 0.002% polysorbate-80; cited from earlier work.
Assay [2] deals with S. aureus ATCC 29213. The assay is described as follows: Membrane depolarization, DiSC3(5) fluorescence. The format is cell-based. The settings on record: 30 min. How it is done: Bacteria were grown overnight in CAMHB and sub-cultured the following day in CAMHB to exponential phase (OD600≈0.25). Exponential- and stationary-phase cells were washed in membrane assay buffer with or without 5 mM glucose, respectively, and resuspended at an OD600=0.25. DiSC3(5) was added to a final concentration of 1.5 μM and the solution was incubated in the dark at ambient temperature for 30 minutes to allow loading of the fluorescent dye into cell membranes. After the loading period, cells were diluted 50-fold (OD600=0.005) in depolarization buffer with or without glucose for exponential- or stationary-phase cells, respectively. Assays were initiated by the addition of antimicrobial agents over a range of concentrations and were monitored in real time by fluorescence spectroscopy (λex=612, λem=665) for a period of 30 minutes. […] Experiments were repeated three times and produced similar results; results from one assay are presented.

For assay [3], the system named is stationary-phase MRSA ATCC 43300. The assay is described as follows: Ultrastructure by transmission electron microscopy of thin sections. The following applies: 3 hours in nutrient-depleted CAMHB; 1 μg/mL oritavancin, 16 μg/mL vancomycin. The format is cell-based, S. aureus. How it is done:
Bacteria were fixed in 2.5% glutaraldehyde to cross-link proteins and help preserve morphological structure. Prior to embedding, the samples were treated with fresh 2.5% (vol/vol) glutaraldehyde in HEPES buffer (pH, 6.8) for 2 hours. The samples were then post-fixed in 2.0% (wt/vol) osmium tetroxide, followed by en bloc-staining with 2.0% (wt/vol) uranyl acetate, as a heavy-metal stain, to add contrast to the cells. The cells were then dehydrated through a series of ethanol washes then embedded in LR White resin. Once polymerized by curing, each culture sample was thin sectioned and stained by uranyl acetate and lead citrate so as to view the internal cellular constituents and the juxtaposition of cell envelope layers such as the plasma membrane and cell wall. Transmission electron microscopy was used to view the thin sections using a Philips CM10 under standard operating conditions at 100 kV.

The subject of assay [4] is S. aureus strains (MSSA ATCC 29213, MRSA ATCC 33591, VRSA VRS5). The assay is described as follows: MBEC system in vitro biofilm, statements over all three strains. The settings on record: 24-hour biofilm. The format is cell-based. As for the experimental part: The commercially-available MBEC™ system (Innovotech; Edmonton, AB, Canada) was used following the manufacturer's protocol (17) to establish in vitro biofilms of S. aureus and to determine the minimal biofilm eradication concentration (MBEC) of oritavancin and comparator antimicrobial agents. The MBEC represents the concentration of antimicrobial agent required to sterilize the biofilm after 24 hours of exposure. The MBEC™ system also allows for the determination of the minimal inhibitory concentration (MIC) of the test agent against planktonic cells under the conditions of the biofilm assay.
150 μL of bacterial inocula at 10^7 CFU/mL in tryptic soy broth was aliquoted into each well of an MBEC plate. Biofilms were established for 24 hours in a rotary incubator at 37° C. and 150 rpm. For experiments involving 72-hour biofilms, peg lids were transferred each day to 96-well plates containing 150 μL/well of fresh tryptic soy broth and incubated another 24 hours. […] The recovery plates were sonicated for 5 minutes in an ultrasonic sonicating bath (VWR Aquasonic model 550D) at the maximum setting then incubated for 24 hours and the MBECs recorded. MBECs were determined from at least three independent experiments; results represent the ranges of MBECs obtained. […]

The subject of assay [5] is VAN-resistant E. faecalis ATCC 51299 (VanB VRE). In words: MBEC plate biofilm eradication. The format is cell-based. The following applies: 24 h of drug challenge. The source says:
(§1) The following strains were used for in vitro biofilm studies: vancomycin (VAN)-susceptible Enterococcus faecalis ATCC 29212 (VSE), VAN-resistant E. faecalis ATCC 51299 (VanB VRE), E. faecium ATCC 51559 (VanA VRE), S. epidermidis ATCC 12228 and the slime-producing strain S. epidermidis ATCC 35984. Biofilms were established in MBEC™ Physiology & Genetics Assay plates (Innovotech; Edmonton, Canada).

In assay [6] the test system is vancomycin (VAN)-susceptible Enterococcus faecalis ATCC 29212 (VSE). In words: MBEC plate biofilm eradication. The class given is cell-based. The settings on record: 24 h of drug challenge.
From the text: as §1

Assay [7] concerns S. epidermidis ATCC 12228. In words: MBEC plate biofilm eradication. The class given is cell-based. The settings on record: single agents.
From the text: as §1

Assay [8] deals with E. faecium ATCC 51559 (VanA VRE). The assay is described as follows: MBEC plate biofilm eradication. The class given is cell-based. The settings on record: 24 h of drug challenge.
From the text: as §1

Assay [9] relates to S. aureus ATCC 29213. The assay is described as follows: Membrane permeability, SYTO-9/propidium iodide fluorescence. The class given is cell-based. The following applies: stationary-phase cells, 30 min. As for the experimental part: For membrane permeability assays, bacteria were prepared identically as described above for the membrane depolarization assay with the exception that SYTO-9 and propidium iodide (Invitrogen Corporation) were added at 5 μM and 30 μM, respectively. Experiments were repeated three times and produced similar results; results from one assay are presented.

Take `CN[C@H](CC(C)C)C(=O)N[C@H]1C(=O)N[C@@H](CC(N)=O)C(=O)N[C@H]2C(=O)N[C@H]3C(=O)N[C@H](C(=O)N[C@H](C(=O)O)c4cc(O)cc(O)c4-c4cc3ccc4O)[C@H](O[C@H]3C[C@](C)(N)[C@@H](O)[C@H](C)O3)c3ccc(c(Cl)c3)Oc3cc2cc(c3O[C@@H]2O[C@H](CO)[C@@H](O)[C@H](O)[C@H]2O[C@H]2C[C@](C)(NCc3ccc(-c4ccc(Cl)cc4)cc3)[C@@H](O)[C@H](C)O2)Oc2ccc(cc2Cl)[C@H]1O` [Oritavancin, N-(4-(4-chlorophenyl)benzyl)A82846B]: the “activity on a coated surface against biofilm formation” value in assay [1] was “significant activity”. In addition, the “CLSI quality control range of MIC” value in the assay with MSSA ATCC 29213 was 0.5 to 2 µg/mL. Besides, the “dissipation of membrane potential (DiSC3(5) fluorescence)” value in the assay on S. aureus ATCC 29213 [2] (exponential-phase cells) and with S. aureus ATCC 29213 [2] (stationary-phase cells) was “occurred in a concentration-dependent manner” in each case. Further, in assay [3], the septal mid-line staining result is on record as “conspicuously absent”. Moreover, the MBEC in [4] (all three S. aureus strains) lay within 2 to 8 µg/mL; in [5], 2 to 4 mg/L; in [6] it was 2 to 4 mg/L; in assay [7], 2 to 4 mg/L; in assay [8] it was 2 to 4 mg/L. Moreover, the “MBEC relative to respective planktonic MIC” value in assay [4] (in each experiment) is recorded as “within one doubling dilution”. Further, the “membrane permeability (SYTO-9 fluorescence)” value in the assay on S. aureus ATCC 29213 [9] is reported as “increased membrane permeability”.

The values above are taken from patent US10201587B2, “Methods of inhibiting and treating biofilms using glycopeptide antibiotics” (MELINTA THERAPEUTICS, INC., priority 2008, dated 2019).
